Where two headings read alike, the source gives them in different places.
Target: T1, PfHsp70-1 (Plasmodium falciparum, UniProt P11144)
T1 construct: recombinant PfHsp70-1 (pQE30/PfHsp70-1)
Assay: SPR, PfHsp70-1 immobilized on CMD 3-D gold chip by amine coupling
Assay type: binding
Text: SPR, PfHsp70-1 immobilized on CMD 3-D gold chip by amine coupling on PfHsp70-1 | PfHsp70 binds to either of the two compounds within the micromolar range of affinity

T1 sequence (P11144 whole entry): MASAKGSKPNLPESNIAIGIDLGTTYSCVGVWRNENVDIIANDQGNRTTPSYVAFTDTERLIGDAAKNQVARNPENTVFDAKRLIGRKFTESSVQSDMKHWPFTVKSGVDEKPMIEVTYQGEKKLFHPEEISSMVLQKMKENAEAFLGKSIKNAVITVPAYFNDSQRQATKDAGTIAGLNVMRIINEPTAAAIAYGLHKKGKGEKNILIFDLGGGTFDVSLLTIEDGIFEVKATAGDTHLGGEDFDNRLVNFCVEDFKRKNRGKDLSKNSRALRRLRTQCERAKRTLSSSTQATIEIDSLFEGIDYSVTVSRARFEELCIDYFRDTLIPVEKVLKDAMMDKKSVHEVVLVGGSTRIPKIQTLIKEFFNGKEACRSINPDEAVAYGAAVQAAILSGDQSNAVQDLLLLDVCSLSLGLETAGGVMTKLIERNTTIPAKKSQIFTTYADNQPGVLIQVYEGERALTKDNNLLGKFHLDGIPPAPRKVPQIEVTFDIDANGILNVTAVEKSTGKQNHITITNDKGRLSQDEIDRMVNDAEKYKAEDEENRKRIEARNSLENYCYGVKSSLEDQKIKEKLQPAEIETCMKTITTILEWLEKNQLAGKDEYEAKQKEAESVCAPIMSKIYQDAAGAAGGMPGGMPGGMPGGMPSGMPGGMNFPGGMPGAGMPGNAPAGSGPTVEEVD

CC(=O)O[C@H]1CC[C@]2(C)[C@H]3CC=C4[C@@H]5[C@@H](C)[C@H](C)CC[C@]5(C(=O)O)CC[C@@]4(C)[C@]3(C)CC[C@H]2C1(C)C [UAA, ursolic acid acetate]
Kd: 4.03 µM

iso-mukaadial acetate [IMA]
Kd (read-out: KD): 9.89 µM
